Measured values: patent US20250353891A1 (MEDIMMUNE LIMITED, priority 2022, published 2025)
Starred links: 1 amine or outer side, 2 acyl side, 3 side chain; linkers in the order of their positions; H or OH if unused. Non-standard residues stand in square brackets, D forms with d. Residues, ends and D or L forms follow the SMILES beside them. Groups on a side chain read outwards from the residue. *: point of attachment. Heptadecanoyl = CCCCCCCCCCCCCCCCC(=O)*; γGlu = O=C(O)[C@H](CCC(=O)[*:2])N[*:1]; Stearoyl = CCCCCCCCCCCCCCCCCC(=O)*; Palmitoyl = CCCCCCCCCCCCCCCC(=O)*; αMeF = C[C@](N)(Cc1ccccc1)C(=O)O; PEG2 = NCCOCCOCCC(=O)O; Aib = CC(C)(N)C(=O)O

Experiments:
[1] = target: human glucagon receptor (hGCGR) (Homo sapiens, UniProt P47871); experiment: cAMP production (HTRF) in CHO cells expressing hGCGR; assay type: cell-based; set-up: expressed in transfected cells; settings: Table 6, peptides modified at position 17; cAMP in CHO hGCGR cells; geometric mean; read-out: hGluc-R EC50
Summary of the method: (§1)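 Read-out: HTRF cAMP (anti-cAMP cryptate donor, cAMP-d2 acceptor in conjugate/lysis buffer), converted to % Delta F and fitted by 4-parameter logistic for EC50. Cell densities were 1×10^5 cells/mL (hGLP-1R) or 2×10^5 cells/mL (hGCGR). Stimulation lasted 30 min at room temperature.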

[2] = target: human GLP-1 receptor (hGLP-1R) (Homo sapiens, UniProt P43220); experiment: cAMP production (HTRF) in CHO cells expressing hGLP-1R; assay type: cell-based; set-up: expressed in transfected cells; settings: for EC50: Table 6, peptides modified at position 17, cAMP in CHO hGLP-1R cells, geometric mean, read-out: hGLP-1R EC50; for % Relative Potency Ratio: Table 6, % GLP-1R activity relative to GLP-1 / % GlucR activity relative to glucagon
Summary of the method: as §1

human GLP-1 receptor (hGLP-1R), sequence (P43220 24-463): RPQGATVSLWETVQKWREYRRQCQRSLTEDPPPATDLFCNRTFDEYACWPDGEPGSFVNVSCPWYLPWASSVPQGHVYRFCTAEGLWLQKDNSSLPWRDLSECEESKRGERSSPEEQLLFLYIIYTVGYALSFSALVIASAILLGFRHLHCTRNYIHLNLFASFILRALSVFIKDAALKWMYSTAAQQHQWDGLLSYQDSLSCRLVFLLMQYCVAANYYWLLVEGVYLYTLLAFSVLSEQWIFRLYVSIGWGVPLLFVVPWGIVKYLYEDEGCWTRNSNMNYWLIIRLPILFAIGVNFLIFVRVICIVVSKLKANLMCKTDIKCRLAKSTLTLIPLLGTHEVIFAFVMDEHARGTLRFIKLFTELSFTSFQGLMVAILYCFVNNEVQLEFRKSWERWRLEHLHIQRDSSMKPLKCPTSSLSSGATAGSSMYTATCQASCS
human glucagon receptor (hGCGR), sequence (P47871 26-477): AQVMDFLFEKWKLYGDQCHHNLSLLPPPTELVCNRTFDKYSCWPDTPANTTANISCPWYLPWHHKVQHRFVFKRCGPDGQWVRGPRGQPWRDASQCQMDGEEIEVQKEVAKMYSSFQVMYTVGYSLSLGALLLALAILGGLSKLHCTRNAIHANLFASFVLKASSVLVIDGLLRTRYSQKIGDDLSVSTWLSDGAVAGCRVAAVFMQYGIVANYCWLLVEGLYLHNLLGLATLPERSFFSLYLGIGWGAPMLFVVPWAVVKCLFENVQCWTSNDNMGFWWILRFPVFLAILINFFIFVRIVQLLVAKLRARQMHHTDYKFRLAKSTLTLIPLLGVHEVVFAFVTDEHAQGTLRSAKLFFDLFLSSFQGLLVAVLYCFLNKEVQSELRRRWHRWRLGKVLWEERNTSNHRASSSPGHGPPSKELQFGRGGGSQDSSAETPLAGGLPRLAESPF

EC50 [1] | EC50 [2] | % Relative Potency Ratio [2] | SMILES
47.7 pM | 1.04 pM | 90.9 | CCCCCCCCCCCCCCCCCC(=O)N[C@@H](CCC(=O)N[C@@H](CCC(=O)NCCOCCOCCC(=O)NCCOCCOCCC(=O)NCCCC[C@H](NC(=O)[C@H](CO)NC(=O)[C@H](CC(=O)O)NC(=O)[C@H](CC(C)C)NC(=O)[C@](C)(Cc1ccccc1)NC(=O)[C@H](CCCCN)NC(=O)[C@H](CO)NC(=O)[C@@H](NC(=O)[C@H](CC(=O)O)NC(=O)[C@H](CO)NC(=O)[C@@H](NC(=O)[C@](C)(Cc1ccccc1)NC(=O)[C@H](CO)NC(=O)CNC(=O)[C@H](CCC(N)=O)NC(=O)[C@H](CO)NC(=O)[C@@H](N)Cc1c[nH]cn1)[C@@H](C)O)C(C)C)C(=O)N[C@@H](C)C(=O)N[C@@H](C)C(=O)N[C@@H](CCC(N)=O)C(=O)N[C@@H](CC(=O)O)C(=O)N[C@@](C)(Cc1ccccc1)C(=O)N[C@H](C(=O)N[C@@H](CCC(N)=O)C(=O)NC(C)(C)C(=O)N[C@H](C(=O)N[C@H](C(=O)N[C@@H](CCC(=O)O)C(=O)NCC(=O)NCC(N)=O)C(C)C)C(C)C)C(C)C)C(=O)O)C(=O)O [Peptide 85] (H-HSQGS[αMeF]TSDVSK[αMeF]LDSK([PEG2-PEG2-γGlu-γGlu-Stearoyl])AAQD[αMeF]VQ[Aib]VVEGG-NH2; N-terminus assumed)
6.46 pM | – | 16.6 | CCCCCCCCCCCCCCCCCC(=O)N[C@@H](CCC(=O)N[C@@H](CCC(=O)NCCOCCOCCC(=O)NCCOCCOCCC(=O)NCCCC[C@H](NC(=O)[C@H](CO)NC(=O)[C@H](CC(=O)O)NC(=O)[C@H](CC(C)C)NC(=O)[C@](C)(Cc1ccccc1)NC(=O)[C@H](CCCCN)NC(=O)[C@H](CO)NC(=O)[C@@H](NC(=O)[C@H](CC(=O)O)NC(=O)[C@H](CO)NC(=O)[C@@H](NC(=O)[C@](C)(Cc1ccccc1)NC(=O)[C@H](CO)NC(=O)CNC(=O)[C@H](CCC(N)=O)NC(=O)[C@H](CO)NC(=O)[C@@H](N)Cc1c[nH]cn1)[C@@H](C)O)C(C)C)C(=O)N[C@@H](C)C(=O)N[C@@H](C)C(=O)N[C@@H](CCC(N)=O)C(=O)N[C@@H](CC(=O)O)C(=O)N[C@@](C)(Cc1ccccc1)C(=O)N[C@H](C(=O)N[C@@H](CCC(N)=O)C(=O)NC(C)(C)C(=O)N[C@H](C(=O)N[C@@H](C)C(=O)N[C@@H](CC(N)=O)C(N)=O)[C@@H](C)CC)C(C)C)C(=O)O)C(=O)O [Peptide 86] (H-HSQGS[αMeF]TSDVSK[αMeF]LDSK([PEG2-PEG2-γGlu-γGlu-Stearoyl])AAQD[αMeF]VQ[Aib]IAN-NH2; N-terminus assumed)
8.46 pM | 1.29 pM | 13.0 | CCCCCCCCCCCCCCCC(=O)N[C@@H](CCC(=O)N[C@@H](CCC(=O)NCCOCCOCCC(=O)NCCOCCOCCC(=O)NCCCC[C@H](NC(=O)[C@H](CO)NC(=O)[C@H](CC(=O)O)NC(=O)[C@H](CC(C)C)NC(=O)[C@](C)(Cc1ccccc1)NC(=O)[C@H](CCCCN)NC(=O)[C@H](CO)NC(=O)[C@@H](NC(=O)[C@H](CC(=O)O)NC(=O)[C@H](CO)NC(=O)[C@@H](NC(=O)[C@](C)(Cc1ccccc1)NC(=O)[C@H](CO)NC(=O)CNC(=O)[C@H](CCC(N)=O)NC(=O)[C@H](CO)NC(=O)[C@@H](N)Cc1c[nH]cn1)[C@@H](C)O)C(C)C)C(=O)N[C@@H](C)C(=O)N[C@@H](C)C(=O)N[C@@H](CCC(N)=O)C(=O)N[C@@H](CC(=O)O)C(=O)N[C@@](C)(Cc1ccccc1)C(=O)N[C@H](C(=O)N[C@@H](CCC(N)=O)C(=O)NC(C)(C)C(=O)N[C@H](C(=O)N[C@@H](C)C(=O)N[C@@H](CC(N)=O)C(N)=O)[C@@H](C)CC)C(C)C)C(=O)O)C(=O)O [Peptide 87] (H-HSQGS[αMeF]TSDVSK[αMeF]LDSK([PEG2-PEG2-γGlu-γGlu-Palmitoyl])AAQD[αMeF]VQ[Aib]IAN-NH2; N-terminus assumed)
6.47 pM | 1.04 pM | 12.3 | CCCCCCCCCCCCCCCCC(=O)N[C@@H](CCC(=O)N[C@@H](CCC(=O)NCCOCCOCCC(=O)NCCOCCOCCC(=O)NCCCC[C@H](NC(=O)[C@H](CO)NC(=O)[C@H](CC(=O)O)NC(=O)[C@H](CC(C)C)NC(=O)[C@](C)(Cc1ccccc1)NC(=O)[C@H](CCCCN)NC(=O)[C@H](CO)NC(=O)[C@@H](NC(=O)[C@H](CC(=O)O)NC(=O)[C@H](CO)NC(=O)[C@@H](NC(=O)[C@](C)(Cc1ccccc1)NC(=O)[C@H](CO)NC(=O)CNC(=O)[C@H](CCC(N)=O)NC(=O)[C@H](CO)NC(=O)[C@@H](N)Cc1c[nH]cn1)[C@@H](C)O)C(C)C)C(=O)N[C@@H](C)C(=O)N[C@@H](C)C(=O)N[C@@H](CCC(N)=O)C(=O)N[C@@H](CC(=O)O)C(=O)N[C@@](C)(Cc1ccccc1)C(=O)N[C@H](C(=O)N[C@@H](CCC(N)=O)C(=O)NC(C)(C)C(=O)N[C@H](C(=O)N[C@@H](C)C(=O)N[C@@H](CC(N)=O)C(N)=O)[C@@H](C)CC)C(C)C)C(=O)O)C(=O)O [Peptide 88] (H-HSQGS[αMeF]TSDVSK[αMeF]LDSK([PEG2-PEG2-γGlu-γGlu-Heptadecanoyl])AAQD[αMeF]VQ[Aib]IAN-NH2; N-terminus assumed)
6.61 pM | 1.87 pM | 7.0 | CCCCCCCCCCCCCCCC(=O)N[C@@H](CCC(=O)N[C@@H](CCC(=O)NCCOCCOCCC(=O)NCCOCCOCCC(=O)NCCCC[C@H](NC(=O)[C@H](CO)NC(=O)[C@H](CC(=O)O)NC(=O)[C@H](CC(C)C)NC(=O)[C@](C)(Cc1ccccc1)NC(=O)[C@H](CCCCN)NC(=O)[C@H](CO)NC(=O)[C@@H](NC(=O)[C@H](CC(=O)O)NC(=O)[C@H](CO)NC(=O)[C@@H](NC(=O)[C@](C)(Cc1ccccc1)NC(=O)[C@H](CO)NC(=O)CNC(=O)[C@H](CCC(N)=O)NC(=O)[C@H](CO)NC(=O)[C@@H](N)Cc1c[nH]cn1)[C@@H](C)O)C(C)C)C(=O)N[C@@H](C)C(=O)N[C@@H](C)C(=O)N[C@@H](CCC(N)=O)C(=O)N[C@@H](CC(=O)O)C(=O)N[C@@](C)(Cc1ccccc1)C(=O)N[C@H](C(=O)N[C@@H](CCC(=O)O)C(=O)NC(C)(C)C(=O)N[C@H](C(=O)N[C@@H](C)C(=O)N[C@@H](CC(N)=O)C(N)=O)[C@@H](C)CC)C(C)C)C(=O)O)C(=O)O [Peptide 90] (H-HSQGS[αMeF]TSDVSK[αMeF]LDSK([PEG2-PEG2-γGlu-γGlu-Palmitoyl])AAQD[αMeF]VE[Aib]IAN-NH2; N-terminus assumed)
10.9 pM | – | 24.1 | CCCCCCCCCCCCCCCCCC(=O)N[C@@H](CCC(=O)N[C@@H](CCC(=O)NCCOCCOCCC(=O)NCCOCCOCCC(=O)NCCCC[C@H](NC(=O)[C@H](CO)NC(=O)[C@H](CC(=O)O)NC(=O)[C@H](CC(C)C)NC(=O)C(C)(C)NC(=O)[C@H](CCCCN)NC(=O)[C@H](CO)NC(=O)[C@@H](NC(=O)[C@H](CC(=O)O)NC(=O)[C@H](CO)NC(=O)[C@@H](NC(=O)[C@](C)(Cc1ccccc1)NC(=O)[C@H](CO)NC(=O)CNC(=O)[C@H](CCC(N)=O)NC(=O)[C@H](CO)NC(=O)[C@@H](N)Cc1c[nH]cn1)[C@@H](C)O)C(C)C)C(=O)N[C@@H](C)C(=O)N[C@@H](C)C(=O)N[C@@H](CCC(N)=O)C(=O)N[C@@H](CC(=O)O)C(=O)N[C@@](C)(Cc1ccccc1)C(=O)N[C@H](C(=O)N[C@@H](CCC(N)=O)C(=O)NC(C)(C)C(=O)N[C@@H](CC(C)C)C(=O)N[C@@H](CCC(=O)O)C(=O)N[C@@H](C)C(N)=O)C(C)C)C(=O)O)C(=O)O [Peptide 92] (H-HSQGS[αMeF]TSDVSK[Aib]LDSK([PEG2-PEG2-γGlu-γGlu-Stearoyl])AAQD[αMeF]VQ[Aib]LEA-NH2; N-terminus assumed)
8.92 pM | – | 37.4 | CCCCCCCCCCCCCCCCCC(=O)N[C@@H](CCC(=O)N[C@@H](CCC(=O)NCCOCCOCCC(=O)NCCOCCOCCC(=O)NCCCC[C@H](NC(=O)[C@H](CO)NC(=O)[C@H](CC(=O)O)NC(=O)[C@H](CC(C)C)NC(=O)C(C)(C)NC(=O)[C@H](CCCCN)NC(=O)[C@H](CO)NC(=O)[C@@H](NC(=O)[C@H](CC(=O)O)NC(=O)[C@H](CO)NC(=O)[C@@H](NC(=O)[C@](C)(Cc1ccccc1)NC(=O)[C@H](CO)NC(=O)CNC(=O)[C@H](CCC(N)=O)NC(=O)[C@H](CO)NC(=O)[C@@H](N)Cc1c[nH]cn1)[C@@H](C)O)C(C)C)C(=O)N[C@@H](C)C(=O)N[C@@H](C)C(=O)N[C@@H](CCC(N)=O)C(=O)N[C@@H](CC(=O)O)C(=O)N[C@@](C)(Cc1ccccc1)C(=O)N[C@H](C(=O)N[C@@H](CCC(N)=O)C(=O)NC(C)(C)C(=O)N[C@@H](CC(C)C)C(=O)N[C@@H](C)C(=O)N[C@@H](CC(N)=O)C(N)=O)C(C)C)C(=O)O)C(=O)O [Peptide 93] (H-HSQGS[αMeF]TSDVSK[Aib]LDSK([PEG2-PEG2-γGlu-γGlu-Stearoyl])AAQD[αMeF]VQ[Aib]LAN-NH2; N-terminus assumed)
5.4 pM | – | 20.7 | CCCCCCCCCCCCCCCCCC(=O)N[C@@H](CCC(=O)N[C@@H](CCC(=O)NCCOCCOCCC(=O)NCCOCCOCCC(=O)NCCCC[C@H](NC(=O)[C@H](CO)NC(=O)[C@H](CC(=O)O)NC(=O)[C@H](CC(C)C)NC(=O)C(C)(C)NC(=O)[C@H](CCCCN)NC(=O)[C@H](CO)NC(=O)[C@@H](NC(=O)[C@H](CC(=O)O)NC(=O)[C@H](CO)NC(=O)[C@@H](NC(=O)[C@](C)(Cc1ccccc1)NC(=O)[C@H](CO)NC(=O)CNC(=O)[C@H](CCC(N)=O)NC(=O)[C@H](CO)NC(=O)[C@@H](N)Cc1c[nH]cn1)[C@@H](C)O)C(C)C)C(=O)N[C@@H](C)C(=O)N[C@@H](C)C(=O)N[C@@H](CCC(N)=O)C(=O)N[C@@H](CC(=O)O)C(=O)N[C@@](C)(Cc1ccccc1)C(=O)N[C@H](C(=O)N[C@@H](CCC(N)=O)C(=O)NC(C)(C)C(=O)N[C@@H](CC(C)C)C(=O)N[C@@H](CO)C(=O)N[C@@H](CCC(=O)O)C(N)=O)C(C)C)C(=O)O)C(=O)O [Peptide 94] (H-HSQGS[αMeF]TSDVSK[Aib]LDSK([PEG2-PEG2-γGlu-γGlu-Stearoyl])AAQD[αMeF]VQ[Aib]LSE-NH2; N-terminus assumed)
